In patent US20230356105A1, “TETRAAZADODECANE BASED CHELATING AGENTS FOR SEPARATION OF RARE EARTH ELEMENTS AND METHOD THEREFOR” (Ustav Organicke Chemie a Biochemie AV CR V.V.I., priority 2020, published 2023):
Several values for one entry are separate records, joined by “and”; a condition that tells them apart may be missing. Equal entries are not always repeated. Where two headings read alike, the source gives them in different places.

Key:
Assay type in all cases: physicochemical
[1] = Removal of additive from remaining solution after precipitation by ultrafiltration (Example 25)
[2] = Use of additives to improve separation of Nd/Dy mixture by precipitation with L5 (Example 18); details: 11 mM L5
Method: Stock solutions were pipetted into plastic 1×1 cm cuvettes to prepare reaction mixtures with concentrations as follows: • 1. […] 5 mM NdCl3 • 3. 5 mM DyCl3 • 4. 500 mM MOPS pH=7 • 5. the additive of interest, in a variable concentration; if possible, stock solutions were prepared from Na^+ salt forms of the compound; if not, the stock solutions were titrated by NaOH/HCl to pH=7 prior to addition (see Table 12 for additives and concentrations)
These aqueous reaction mixtures, each prepared to a total volume of 2.0 mL with the addition of water as necessary, were mixed by the use of a PTFE-coated stir bar on a magnetic stirrer. The cuvettes were sealed with transparent tape to prevent evaporation overnight. The reaction mixtures were stirred for 18 hours, at which point 500 μL aliquots of each reaction mixture were transferred into plastic 2 mL Eppendorf tubes and centrifuged. The supernatants were carefully pipetted out and transferred to a new set of tubes. The precipitate was dissolved by addition of 500 μL 1M HCl. The absolute concentration of Nd and Dy in each supernatant and precipitate was determined by ICP-OES.

[3] = Separation of Tb/Lu mixture by precipitation using L4 (Example 16); details: for Precipitate concentration [mM] Lu / Precipitate concentration [mM] Tb: dissolved to 150 μL
Method: The experiment was conducted according to Example 24, with 3 identical reaction mixtures containing Tb, Lu, and compound L4. The experimental procedure was identical to that of Example 24 with the difference being that the dissolution of the precipitate in 100 μL, 1 M HCl was achieved within several minutes. The resulting absolute concentrations of both metals in the supernatants and precipitates, as well as calculated values of the separation factor […] according to formula from Example 11), are summarized in Table 10. […] The average separation factor value was 27.

[4] = Separation of Y/Tb mixture by repeated precipitation using L2 (Example 14); details: for Precipitate concentration [mM] Tb / Precipitate concentration [mM] Y: dissolved to 200 μL
Method: The experiment was conducted according to Example 11) with 9 identical reaction mixtures containing Y, Tb, and compound L2. The experimental procedure was identical to that of Example 11). The resulting absolute concentrations of both metals in the supernatants and precipitates, as well as calculated values of separation factor Y/Tb according to the formula from Example 11), are summarized in Table 8. The average separation factor value was 3.34.

[5] = Separation of industrially relevant binary mixtures by precipitation using L1, L2 and L3 (Example 10); details: supernatant
Method: Analogous to Example 7), three sets of reaction mixtures with two metals and either compound L1, L2, or L3 were prepared in a 96-well plate with the following differences: each well was equipped with one PTFE-coated magnetic stir bar, the well plate was sealed with a silicon cover, and the reaction mixtures were stirred on a magnetic stirrer for 2 days at room temperature. Analogous to Example 7), the well plate was then centrifuged and concentrations of the metals were determined using ICP-OES. […] It is evident from the results that certain degrees of enrichment are achieved for very different combinations of metals, and that ligands L1, L2, and L3 have different selectivities for given combinations of metals.

[6] = group A, 1st precipitation, mean
[7] = group B, 2nd precipitation, mean

## CC(=O)O [acetate]
[1]; initial [additive] 76 mM
  % of initial [additive] in filtrate: 83%
[2]; additive 50 mM
  Precipitate concentration [mM] Dy: 2.43 mM
  Precipitate concentration [mM] Nd: 4.97 mM
  Supernatant concentration [mM] Dy: 3.05 mM
  Supernatant concentration [mM] Nd: 0.33 mM
[2]; additive 100 mM
  Precipitate concentration [mM] Dy: 1.74 mM
  Precipitate concentration [mM] Nd: 4.85 mM
  Supernatant concentration [mM] Dy: 3.74 mM
  Supernatant concentration [mM] Nd: 0.30 mM
[2]; additive 250 mM
  Precipitate concentration [mM] Dy: 1.05 mM
  Precipitate concentration [mM] Nd: 4.04 mM
  Supernatant concentration [mM] Dy: 4.37 mM
  Supernatant concentration [mM] Nd: 1.17 mM
[2]; additive 500 mM
  Precipitate concentration [mM] Dy: 0.49 mM
  Precipitate concentration [mM] Nd: 0.52 mM
  Supernatant concentration [mM] Dy: 4.69 mM
  Supernatant concentration [mM] Nd: 4.62 mM

## O=C(O)CN1CCN(CC(=O)O)CCN(Cc2ccc3ccccc3c2)CCN(CC(=O)O)CC1 [L4, 2,2′,2″-(10-(naphthalene-2-ylmethyl)-1,4,7,10-tetraazacyklododekane-1,4,7-triyl)triacetic acid]
[3]
  Supernatant concentration [mM] Lu: 4.26 mM and 4.07 mM and 4.18 mM
  Supernatant concentration [mM] Tb: 1.08 mM and 0.93 mM and 1.19 mM
  Precipitate concentration [mM] Lu: 0.51 mM and 0.61 mM and 0.47 mM
  Precipitate concentration [mM] Tb: 3.74 mM and 3.73 mM and 3.28 mM
[3]; mean
  Precipitate concentration [mM] Lu: 0.53 mM
  Precipitate concentration [mM] Tb: 3.59 mM
  Supernatant concentration [mM] Lu: 4.17 mM
  Supernatant concentration [mM] Tb: 1.07 mM

## O=C(O)CN1CCNCCN(CC(=O)O)CCN(Cc2cc([N+](=O)[O-])ccc2O)CC1 [L2, 2,2′(4-(2-hydroxy-5-nitrobenzyl)-1,4,7,10-tetraazacyclododecane-1,7-diyl)Diacetic Acid]
[4]; group A, 1st precipitation
  Supernatant concentration [mM] Tb: 1.70 mM and 1.85 mM and 1.74 mM
  Supernatant concentration [mM] Y: 4.25 mM and 4.36 mM and 4.12 mM
  Precipitate concentration [mM] Tb: 8.05 mM and 7.82 mM and 7.70 mM
  Precipitate concentration [mM] Y: 5.45 mM and 5.23 mM and 5.52 mM
[4]; [6]
  Precipitate concentration [mM] Tb: 7.86 mM
  Precipitate concentration [mM] Y: 5.40 mM
  Supernatant concentration [mM] Tb: 1.76 mM
  Supernatant concentration [mM] Y: 4.24 mM
[4]; group B, 2nd precipitation
  Supernatant concentration [mM] Tb: 0.79 mM and 1.15 mM and 0.97 mM
  Supernatant concentration [mM] Y: 1.42 mM and 1.52 mM and 1.48 mM
  Precipitate concentration [mM] Tb: 6.95 mM and 5.71 mM and 6.60 mM
  Precipitate concentration [mM] Y: 3.87 mM and 2.86 mM and 3.57 mM
[4]; [7]
  Precipitate concentration [mM] Tb: 6.42 mM
  Precipitate concentration [mM] Y: 3.43 mM
  Supernatant concentration [mM] Y: 1.47 mM
[5]; M1/M2=Eu/Y
  [mM] M1: 1.363 mM
  [mM] M2: 2.814 mM
[5]; M1/M2=La/Ce
  [mM] M1: 0.175 mM
  [mM] M2: 0.158 mM
[5]; M1/M2=Nd/Ce
  [mM] M1: 0.425 mM
  [mM] M2: 0.779 mM
[5]; M1/M2=Nd/Dy
  [mM] M1: 1.757 mM
  [mM] M2: 1.970 mM
[5]; M1/M2=Nd/La
  [mM] M1: 0.263 mM
  [mM] M2: 0.128 mM
[5]; M1/M2=Nd/Pr
  [mM] M1: 2.303 mM
  [mM] M2: 2.352 mM
[5]; M1/M2=Nd/Tb
  [mM] M1: 1.532 mM
  [mM] M2: 1.438 mM
[5]; M1/M2=Pr/Ce
  [mM] M1: 0.162 mM
  [mM] M2: 0.171 mM
[5]; M1/M2=Pr/Dy
  [mM] M1: 2.417 mM
  [mM] M2: 2.422 mM
[5]; M1/M2=Pr/La
  [mM] M1: 0.172 mM
  [mM] M2: 0.163 mM
[5]; M1/M2=Tb/Dy
  [mM] M1: 1.054 mM
  [mM] M2: 2.708 mM
[5]; M1/M2=Tb/Eu
  [mM] M1: 1.182 mM
  [mM] M2: 0.956 mM
[5]; M1/M2=Tb/Pr
  [mM] M1: 1.945 mM
  [mM] M2: 2.156 mM
[5]; M1/M2=Tb/Y
  [mM] M1: 1.615 mM
  [mM] M2: 2.812 mM

## CC(C)(O)C(=O)O [α-HIBA, alpha-hydroxyisobutyric acid]
[1]; initial [additive] 30.4 mM
  % of initial [additive] in filtrate: 3%
[2]; additive 5 mM
  Precipitate concentration [mM] Dy: 2.59 mM
  Precipitate concentration [mM] Nd: 4.32 mM
  Supernatant concentration [mM] Dy: 1.55 mM
  Supernatant concentration [mM] Nd: 0.10 mM
[2]; additive 10 mM
  Precipitate concentration [mM] Dy: 1.50 mM
  Precipitate concentration [mM] Nd: 4.03 mM
  Supernatant concentration [mM] Dy: 3.03 mM
  Supernatant concentration [mM] Nd: 0.19 mM
[2]; additive 15 mM
  Precipitate concentration [mM] Dy: 1.18 mM
  Precipitate concentration [mM] Nd: 4.33 mM
  Supernatant concentration [mM] Dy: 3.37 mM
  Supernatant concentration [mM] Nd: 0.33 mM
[2]; additive 20 mM
  Precipitate concentration [mM] Dy: 0.81 mM
  Precipitate concentration [mM] Nd: 3.78 mM
  Supernatant concentration [mM] Dy: 3.69 mM
  Supernatant concentration [mM] Nd: 0.60 mM

## O=C(O)c1ccccc1 [benzoic acid]
[1]; initial [additive] 76 mM
  % of initial [additive] in filtrate: 43%
[2]; additive 20 mM
  Precipitate concentration [mM] Dy: 3.83 mM
  Precipitate concentration [mM] Nd: 4.94 mM
  Supernatant concentration [mM] Dy: 1.09 mM
  Supernatant concentration [mM] Nd: 0.13 mM
[2]; additive 50 mM
  Precipitate concentration [mM] Dy: 1.81 mM
  Precipitate concentration [mM] Nd: 4.66 mM
  Supernatant concentration [mM] Dy: 2.69 mM
  Supernatant concentration [mM] Nd: 0.10 mM
[2]; additive 100 mM
  Precipitate concentration [mM] Dy: 0.97 mM
  Precipitate concentration [mM] Nd: 4.60 mM
  Supernatant concentration [mM] Dy: 4.03 mM
  Supernatant concentration [mM] Nd: 0.49 mM
[2]; additive 150 mM
  Precipitate concentration [mM] Dy: 0.68 mM
  Precipitate concentration [mM] Nd: 3.96 mM
  Supernatant concentration [mM] Dy: 4.34 mM
  Supernatant concentration [mM] Nd: 1.03 mM
[2]; additive 200 mM
  Precipitate concentration [mM] Dy: 0.53 mM
  Precipitate concentration [mM] Nd: 1.65 mM
  Supernatant concentration [mM] Dy: 4.20 mM
  Supernatant concentration [mM] Nd: 2.89 mM
[2]; additive 250 mM
  Precipitate concentration [mM] Dy: 0 mM
  Precipitate concentration [mM] Nd: 0 mM
  Supernatant concentration [mM] Dy: 5 mM
  Supernatant concentration [mM] Nd: 5 mM
